Key:
Format in all cases: in vivo
[1] = system: Western plant bug (Lygus bug), Lygus hesperus (Knight); assay: Treated bean piece bioassay against Western plant bug (Lygus bug), synergy by Colby's equation; settings: Lygus bugs
Excerpt: The method described in Colby S. R., “Calculating Synergistic and Antagonistic Responses of Herbicide Combinations,” Weeds, 1967, 15, 20-22 was used to determine an existence of synergic effect between the nAChR allosteric activator compound and the pesticide (I), (II), or any agriculturally acceptable salt thereof in the formulated pesticidal composition. In this method, the percent insect control of the formulated pesticidal composition as observed in the study was compared to the “expected” percent control (E) as calculated by equation (1) (hereinafter “Colby's equation”) below: [formula] where X is the percentage of control with the first pesticide at a given rate (p), Y is the percentage of control with the second pesticide at a given rate (q), and E is the expected control by the first and second pesticide at a rate of p+q. […] A pesticidal composition was prepared by thoroughly mixing about 0.04 weight % of compound I with about 0.00125 weight % of spinetoram. The active compounds were formulated in a 10% acetone solution with 0.025% non-ionic surfactant, TWEEN® 20. Bioassays were performed for each different active solution. Bean pieces (about one inch-long) were used for the tests. Four bean pieces were placed in each tested active solution and left there for 10 minutes. Bean pieces were taken out of the active solution, and each piece was placed in a well in a 32-well tray and allowed to air dry. Three third-instar nymphs of Western plant bug (Lygus bug), Lygus hesperus (Knight), were infested into each well. The percent control of the pesticidal composition against Lygus bug was determined as the “Observed” action, and compared to those obtained by using about 0.04 weight % of compound I, and using about 0.00125 weight % of spinetoram alone. The “Colby's Expected Action” was calculated using Colby's equation as discussed previously. A pesticidal composition was prepared by thoroughly mixing about 0.04 weight % of compound I with about 0.005 weight % of spinetoram. The bioassays were performed wherein different active compounds were tested against Western plant bug (Lygus bug), Lygus hesperus (Knight), using the procedure described in example 4A.

[2] = system: cotton aphid, Aphis gossypii (Glover); assay: Track-sprayed cotton plant bioassay against cotton aphid, synergy by Colby's equation; settings: Spinetoram alone, dose rate 0.005 weight %
Excerpt: The method described in Colby S. R., “Calculating Synergistic and Antagonistic Responses of Herbicide Combinations,” Weeds, 1967, 15, 20-22 was used to determine an existence of synergic effect between the nAChR allosteric activator compound and the pesticide (I), (II), or any agriculturally acceptable salt thereof in the formulated pesticidal composition. In this method, the percent insect control of the formulated pesticidal composition as observed in the study was compared to the “expected” percent control (E) as calculated by equation (1) (hereinafter “Colby's equation”) below: [formula] where X is the percentage of control with the first pesticide at a given rate (p), Y is the percentage of control with the second pesticide at a given rate (q), and E is the expected control by the first and second pesticide at a rate of p+q. […] The percent control of the pesticidal composition against cotton aphid, Aphis gossypii (Glover), was determined as the “Observed” action, and compared to those obtained by using about 0.0020 weight % of compound II, and using about 0.005 weight % of spinetoram alone. The “Colby's Expected Action” was calculated using Colby's equation as discussed previously.

[3] = system: diamondback moth, Plutella xylostella; assay: Track-sprayed cabbage plant bioassay against diamondback moth, synergy by Colby's equation; settings: Spinetoram alone, dose rate 0.0003125 weight %
Excerpt: The method described in Colby S. R., “Calculating Synergistic and Antagonistic Responses of Herbicide Combinations,” Weeds, 1967, 15, 20-22 was used to determine an existence of synergic effect between the nAChR allosteric activator compound and the pesticide (I), (II), or any agriculturally acceptable salt thereof in the formulated pesticidal composition. In this method, the percent insect control of the formulated pesticidal composition as observed in the study was compared to the “expected” percent control (E) as calculated by equation (1) (hereinafter “Colby's equation”) below: [formula] where X is the percentage of control with the first pesticide at a given rate (p), Y is the percentage of control with the second pesticide at a given rate (q), and E is the expected control by the first and second pesticide at a rate of p+q. […] Bioassays were performed for different active compounds. Cabbage plants with about two to three new-growth-true leaf stage were treated with different active compounds using a track sprayer at a volume of 400 L/Ha. Three second instar diamondback moth, Plutella xylostella, were infested onto each leaf disc. […] The “Colby's Expected Action” was calculated using Colby's equation as discussed previously.

[4] = system: South American brown stink bug, Euschistus heros; assay: Treated bean piece bioassay against South American brown stink bug, synergy by Colby's equation; settings: Spinetoram alone, dose rate 0.0000039 weight %
Excerpt: The method described in Colby S. R., “Calculating Synergistic and Antagonistic Responses of Herbicide Combinations,” Weeds, 1967, 15, 20-22 was used to determine an existence of synergic effect between the nAChR allosteric activator compound and the pesticide (I), (II), or any agriculturally acceptable salt thereof in the formulated pesticidal composition. In this method, the percent insect control of the formulated pesticidal composition as observed in the study was compared to the “expected” percent control (E) as calculated by equation (1) (hereinafter “Colby's equation”) below: [formula] where X is the percentage of control with the first pesticide at a given rate (p), Y is the percentage of control with the second pesticide at a given rate (q), and E is the expected control by the first and second pesticide at a rate of p+q. […] The percent control of the pesticidal composition against South American brown stink bug, Euschistus heros, was determined as the “Observed” action, and compared to those obtained by using about 0.04 weight % of compound I, and using about 0.0000039 weight % of spinetoram alone. The “Colby's Expected Action” was calculated using Colby's equation as discussed previously.

In the case of CCN(C(=O)CCSCCC(F)(F)F)c1cn(-c2cccnc2)nc1Cl [Compound I, N-(3-chloro-1-(pyridin-3-yl)-1H-pyrazol-4-yl)-N-ethyl-3-((3,3,3-trifluoropropyl)thio)propanamide], the “% Control Three Days After Treatment” value ([1]; Example 8A, Compound I alone, dose rate 0.04 weight %) was “no control”, the “% Control Three Days After Treatment” value ([1]; Example 8B, Compound I alone, dose rate 0.04 weight %) was 0% and the “% Control Three Days After Treatment” value ([1]; Example 8B, Compound I alone, dose rate 0.04 weight %, listed as compound I) was “no control”.

For Spinetoram, the “% Control Three Days After Treatment” value [2] was 2%, the “% Control Three Days After Treatment” value [3] was 54.17% and the “% Control Four Days After Treatment” value [4] was 25%. The “% Control Three Days After Treatment” value ([1]; Example 8A, Spinetoram alone, dose rate 0.00125 weight %) was 0%, the “% Control Three Days After Treatment” value ([1]; Example 8A, Spinetoram alone, dose rate 0.00125 weight %, listed as spinetoram) was “no control” and the “% Control Three Days After Treatment” value ([1]; Example 8B, Spinetoram alone, dose rate 0.005 weight %) was 0%. The “% Control Three Days After Treatment” value ([1]; Example 8B, Spinetoram alone, dose rate 0.005 weight %, listed as spinetoram) was “no control”.

— patent US9808008B2, “Synergistic pesticidal compositions and related methods” (Dow AgroSciences LLC, priority 2013, dated 2017)
